Data reported in PubChem BioAssay AID180 (DTP/NCI, 2004).
Several values for one entry are separate records, joined by “and”; a condition that tells them apart may be missing. Identical values can stand only once.

System: BDF1 mice, Adenocarcinoma 755 s.c., tumor weight T/C
Experiment: NCI In Vivo Anticancer Drug Screen. Data for tumor model Adenocarcinoma 755 (subcutaneous) in B6D2F1 (BDF1) mice
Conditions: endpoint: mean tumor weight, higher = larger tumour
Procedure, shortened: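 Values express treated (T) relative to vehicle-dosed control (C) animals, based on survival or tumour size measured after compound treatment of mice bearing a transplanted tumour.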

[1] = dose: 25.0 mg/kg/injection, schedule: Q01DX011 (ip), vehicle: methylcellulose (MC)

In the case of `CC1CN1P(=S)(N1CCCC1)N1CC1C` (stereo not given), the T/C (dose: 14.0 mg/kg/injection, schedule: Q01DX011 (ip), vehicle: carboxymethylcellulose (CMC)) is reported as 82 % of control, the T/C (dose: 14.0 mg/kg/injection, schedule: Q01DX011 (ip), vehicle: saline) is reported as 63 % of control and the T/C (dose: 28.0 mg/kg/injection, schedule: Q01DX011 (ip), vehicle: carboxymethylcellulose (CMC)) is reported as 58 % of control. For the same molecule, the T/C (dose: 28.0 mg/kg/injection, schedule: Q01DX011 (ip), vehicle: saline) was 43 % of control, the T/C (dose: 57.0 mg/kg/injection, schedule: Q01DX011 (ip), vehicle: carboxymethylcellulose (CMC)) was 15 % of control and the T/C (dose: 57.0 mg/kg/injection, schedule: Q01DX011 (ip), vehicle: saline) was 21 % of control.
In the case of `CSc1nc(N)nc2c1n(C)c[n+]2C`, the T/C (dose: 30.0 mg/kg/injection, schedule: Q01DX011 (ip), vehicle: carboxymethylcellulose (CMC)) is reported as 97 % of control, the T/C (dose: 60.0 mg/kg/injection, schedule: Q01DX011 (ip), vehicle: carboxymethylcellulose (CMC)) is reported as 99 % of control and the T/C (dose: 120.0 mg/kg/injection, schedule: Q01DX011 (ip), vehicle: carboxymethylcellulose (CMC)) is reported as 66 % of control. For the same molecule, the T/C (dose: 240.0 mg/kg/injection, schedule: Q01DX011 (ip), vehicle: carboxymethylcellulose (CMC)) was 89 % of control.
With `C1CN1c1nc(N2CC2)nc(N2CC2)n1` the T/C (dose: 0.03 mg/kg/injection, schedule: Q01DX011 (ip), vehicle: carboxymethylcellulose (CMC)) was 90 % of control, the T/C (dose: 0.05 mg/kg/injection, schedule: Q01DX011 (ip), vehicle: carboxymethylcellulose (CMC)) was 80 % of control and the T/C (dose: 0.1 mg/kg/injection, schedule: Q01DX011 (ip), vehicle: carboxymethylcellulose (CMC)) was 36 % of control. The T/C (dose: 0.1 mg/kg/injection, schedule: Q02DX011 (ip), vehicle: carboxymethylcellulose (CMC)) was 65 % of control, the T/C (dose: 0.2 mg/kg/injection, schedule: Q02DX011 (ip), vehicle: carboxymethylcellulose (CMC)) was 49 % of control and the T/C (dose: 0.5 mg/kg/injection, schedule: Q01DX011 (ip), vehicle: saline) was 8 % of control. For the same molecule, the T/C (dose: 49.0 micrograms/kg/injection, schedule: Q01DX011 (ip), vehicle: carboxymethylcellulose (CMC)) was 86 % of control, the T/C (dose: 67.0 micrograms/kg/injection, schedule: Q01DX011 (ip), vehicle: carboxymethylcellulose (CMC)) was 213 % of control and the T/C (dose: 98.0 micrograms/kg/injection, schedule: Q01DX011 (ip), vehicle: carboxymethylcellulose (CMC)) was 88 % of control. For the same molecule, the T/C (dose: 134.0 micrograms/kg/injection, schedule: Q01DX011 (ip), vehicle: carboxymethylcellulose (CMC)) was 101 % of control, the T/C (dose: 150.0 micrograms/kg/injection, schedule: Q01DX011 (ip), vehicle: saline) was 63 % of control and the T/C (dose: 260.0 micrograms/kg/injection, schedule: Q01DX011 (ip), vehicle: carboxymethylcellulose (CMC)) was 57 % of control and 77 % of control. The T/C (dose: 268.0 micrograms/kg/injection, schedule: Q01DX011 (ip), vehicle: carboxymethylcellulose (CMC)) was 82 % of control, the T/C (dose: 300.0 micrograms/kg/injection, schedule: Q01DX011 (ip), vehicle: saline) was 33 % of control and the T/C (dose: 536.0 micrograms/kg/injection, schedule: Q01DX011 (ip), vehicle: carboxymethylcellulose (CMC)) was 18 % of control. The T/C (dose: 600.0 micrograms/kg/injection, schedule: Q01DX011 (ip), vehicle: saline) was 7 % of control.
With `NC(=S)N/N=C/c1cccnc1` the T/C (dose: 1:1000.0 dilution, schedule: Q01DX006 (ip), vehicle: water) was 124 % of control and the T/C (dose: 1:2000.0 dilution, schedule: Q01DX006 (ip), vehicle: water) was 110 % of control.
For `CC(C)Cn1cnc2c(SCC(=O)O)nc(N)nc21`, the T/C [1] was 114 % of control, the T/C (dose: 75.0 mg/kg/injection, schedule: Q01DX011 (ip), vehicle: methylcellulose (MC)) was 85 % of control and the T/C (dose: 225.0 mg/kg/injection, schedule: Q01DX011 (ip), vehicle: methylcellulose (MC)) was 114 % of control.
For `O=C(C1C(c2ccccc2)N1Cc1ccccc1)C1C(c2ccccc2)N1Cc1ccccc1` (stereo not given), the T/C [1] was 47 % of control, the T/C (dose: 50.0 mg/kg/injection, schedule: Q01DX011 (ip), vehicle: methylcellulose (MC)) was 77 % of control and the T/C (dose: 100.0 mg/kg/injection, schedule: Q01DX011 (ip), vehicle: methylcellulose (MC)) was 66 % of control.
With `Nc1ccccc1N` the T/C (dose: 31.25 mg/kg/injection, schedule: Q01DX011 (ip), vehicle: methylcellulose (MC)) was 80 % of control, the T/C (dose: 62.5 mg/kg/injection, schedule: Q01DX011 (ip), vehicle: methylcellulose (MC)) was 40 % of control and the T/C (dose: 125.0 mg/kg/injection, schedule: Q01DX011 (ip), vehicle: methylcellulose (MC)) was 55 % of control.
In the case of `O=C(O)c1cccc2c3c(cc([N+](=O)[O-])c12)CCCC3`, the T/C (dose: 0.18 mg/kg/injection, schedule: Q01DX011 (ip), vehicle: carboxymethylcellulose (CMC)) is reported as 101 % of control, the T/C (dose: 0.37 mg/kg/injection, schedule: Q01DX011 (ip), vehicle: carboxymethylcellulose (CMC)) is reported as 97 % of control and the T/C (dose: 1.5 mg/kg/injection, schedule: Q01DX011 (ip), vehicle: carboxymethylcellulose (CMC)) is reported as 85 % of control.
